PubChem BioAssay AID2060883 (Molecular Pharmacology Branch, DTP, NCI, 2025)

Tested on: 843782-103-R-J1-PDC complex spheroid viability
Assay: Anticancer human tumor 843782-103-R-J1-PDC patient-derived lung adenocarcinoma cell line growth inhibition [RAS]
Details: for IC50: curve of first compound; for viability, T/C: stronger effect = lower value; active = viability on the fitted dose curve at most 10% of control; inactive = the rest
Outline: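 Multi-cell-type spheroids: tumor cells plus HUVEC endothelial cells and mesenchymal stem cells. RAS-pathway inhibitors were combined with targeted agents, each dosed in half-log steps down from clinical Cmax, or from 10 microM when Cmax was unknown.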

[1] = second compound 0.0316 µM, first compound 0.0316 µM
[2] = second compound 0.0316 µM, first compound 0.1 µM
[3] = second compound 0.0316 µM, first compound 0.316 µM
[4] = second compound 0.0316 µM, first compound 1 µM
[5] = second compound 0.1 µM, first compound 0.0316 µM
[6] = second compound 0.1 µM, first compound 0.1 µM
[7] = second compound 0.1 µM, first compound 0.316 µM
[8] = second compound 0.1 µM, first compound 1 µM
[9] = second compound 0.316 µM, first compound 0.0316 µM
[10] = second compound 0.316 µM, first compound 0.1 µM
[11] = second compound 0.316 µM, first compound 0.316 µM
[12] = second compound 0.316 µM, first compound 1 µM
[13] = second compound 1 µM, first compound 0.0316 µM
[14] = second compound 1 µM, first compound 0.1 µM
[15] = second compound 1 µM, first compound 0.316 µM
[16] = second compound 1 µM, first compound 1 µM
[17] = second compound 3.16 µM, first compound 0.0316 µM
[18] = second compound 3.16 µM, first compound 0.1 µM
[19] = second compound 3.16 µM, first compound 0.316 µM
[20] = second compound 3.16 µM, first compound 1 µM
[21] = second compound 10 µM, first compound 0.0316 µM
[22] = second compound 10 µM, first compound 0.1 µM
[23] = second compound 10 µM, first compound 0.316 µM
[24] = second compound 10 µM, first compound 1 µM
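Note: viability read after seven days of compound exposure.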

C=CC(=O)N1CCN(c2nc(OCC3CCCN3C)nc3c(F)c(-c4nc(N)cc(C)c4C(F)(F)F)c(Cl)cc23)C(C)C1 (centres undefined) + C#Cc1c(F)ccc2cc(O)cc(-c3ncc4c(N5CC6CCC(C5)N6)nc(OCC56CCCN5CC(F)C6)nc4c3F)c12
inactive: viability, T/C (second compound 0.0316 µM, first compound 0.00316 µM) 89.9% | viability, T/C (second compound 0.0316 µM, first compound 0.01 µM) 81.1% | viability, T/C [1] 83.3% | viability, T/C [2] 76.3% | viability, T/C [3] 88.4% | viability, T/C [4] 79.5% | viability, T/C (second compound 0.1 µM, first compound 0.00316 µM) 89.7% | viability, T/C (second compound 0.1 µM, first compound 0.01 µM) 83.1% | viability, T/C [5] 74.4% | viability, T/C [6] 78.1% | viability, T/C [7] 69.8% | viability, T/C [8] 80.6% | viability, T/C (second compound 0.316 µM, first compound 0.00316 µM) 86.5% | viability, T/C (second compound 0.316 µM, first compound 0.01 µM) 68.1% | viability, T/C [9] 74.8% | viability, T/C [10] 78.8% | viability, T/C [11] 77.4% | viability, T/C [12] 76.1% | viability, T/C (second compound 1 µM, first compound 0.00316 µM) 81% | viability, T/C (second compound 1 µM, first compound 0.01 µM) 74.1% | viability, T/C [13] 79.3% | viability, T/C [14] 69.3% | viability, T/C [15] 65.8% | viability, T/C [16] 68.5% | viability, T/C (second compound 3.16 µM, first compound 0.00316 µM) 62.2% | viability, T/C (second compound 3.16 µM, first compound 0.01 µM) 67.2% | viability, T/C [17] 70% | viability, T/C [18] 64.3% | viability, T/C [19] 60.1% | viability, T/C [20] 64.5% | viability, T/C (second compound 10 µM, first compound 0.00316 µM) 39.6% | viability, T/C (second compound 10 µM, first compound 0.01 µM) 57% | viability, T/C [21] 44.8% | viability, T/C [22] 49.7% | viability, T/C [23] 40.5% | viability, T/C [24] 40.5%
> 1000 nM: IC50 (second compound 0.0316 µM) | IC50 (second compound 0.1 µM) | IC50 (second compound 0.316 µM) | IC50 (second compound 1 µM) | IC50 (second compound 3.16 µM)
< 3.16 nM: IC50 (second compound 10 µM)

CC(=O)OC12COC1CC(O)C1(C)C(=O)C(O)C3=C(C)C(OC(=O)C(O)C(NC(=O)OC(C)(C)C)c4ccccc4)CC(O)(C(OC(=O)c4ccccc4)C21)C3(C)C (centres undefined) + C#Cc1c(F)ccc2cc(O)cc(-c3ncc4c(N5CC6CCC(C5)N6)nc(OCC56CCCN5CC(F)C6)nc4c3F)c12
< 31.6 nM: IC50 (second compound 0.0316 µM) | IC50 (second compound 0.1 µM) | IC50 (second compound 0.316 µM) | IC50 (second compound 1 µM) | IC50 (second compound 3.16 µM) | IC50 (second compound 10 µM)
active: viability, T/C [1] 4.52% | viability, T/C [2] 3.3% | viability, T/C [3] 5.75% | viability, T/C [4] 5.44% | viability, T/C (second compound 0.0316 µM, first compound 3.16 µM) 6.53% | viability, T/C (second compound 0.0316 µM, first compound 10 µM) 7.38% | viability, T/C [5] 5.17% | viability, T/C [6] 4.75% | viability, T/C [7] 5.48% | viability, T/C [8] 5.75% | viability, T/C (second compound 0.1 µM, first compound 3.16 µM) 5.28% | viability, T/C (second compound 0.1 µM, first compound 10 µM) 6.18% | viability, T/C [9] 5.18% | viability, T/C [10] 5.95% | viability, T/C [11] 5.15% | viability, T/C [12] 5.27% | viability, T/C (second compound 0.316 µM, first compound 3.16 µM) 4.44% | viability, T/C (second compound 0.316 µM, first compound 10 µM) 8.29% | viability, T/C [13] 4.8% | viability, T/C [14] 6.07% | viability, T/C [15] 7.89% | viability, T/C [16] 6.08% | viability, T/C (second compound 1 µM, first compound 3.16 µM) 5.69% | viability, T/C (second compound 1 µM, first compound 10 µM) 8.43% | viability, T/C [17] 5.43% | viability, T/C [18] 5.83% | viability, T/C [19] 5.33% | viability, T/C [20] 4.35% | viability, T/C (second compound 3.16 µM, first compound 3.16 µM) 6.83% | viability, T/C (second compound 3.16 µM, first compound 10 µM) 8.8% | viability, T/C [21] 5.06% | viability, T/C [22] 3.91% | viability, T/C [23] 6.9% | viability, T/C [24] 4.34% | viability, T/C (second compound 10 µM, first compound 3.16 µM) 3.89% | viability, T/C (second compound 10 µM, first compound 10 µM) 7.89%
